# Measurements as given in ChEMBL document CHEMBL1130065, “Dual inhibition of human leukocyte elastase and lipid peroxidation: in vitro and in vivo activities of azabicyclo[2.2.2]octane and perhydroindole derivatives” (J Med Chem, 1997).
# Assays:
# Neutrophil elastase = molecular target: T1, Neutrophil elastase (Homo sapiens, UniProt P08246); test: Inhibitory concentration against Human Leukocyte Elastase from human sputum
# T1 sequence (P08246 whole entry): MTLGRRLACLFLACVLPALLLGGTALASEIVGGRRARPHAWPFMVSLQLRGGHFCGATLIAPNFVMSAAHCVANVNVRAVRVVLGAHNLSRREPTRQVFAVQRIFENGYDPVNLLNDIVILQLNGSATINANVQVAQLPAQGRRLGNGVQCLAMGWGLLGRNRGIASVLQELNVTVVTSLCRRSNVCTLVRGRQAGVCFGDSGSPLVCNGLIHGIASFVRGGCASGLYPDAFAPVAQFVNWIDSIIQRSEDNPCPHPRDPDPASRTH
# [1] = molecular target: T2, Neutrophil elastase (Homo sapiens) (UniProt P08246); test: Percentage inhibition of HLE induced hemorrhage in the hamster lung at 3 hours; assay type: functional; parameters: concentration or dose not given beside the values; conditions: concentration not given here
# T2 sequence (whole entry): T1 sequence (P08246 whole entry)
# Rattus norvegicus [2] = species on record: Rattus norvegicus
# Stromelysin-1 = Stromelysin-1 (Homo sapiens, UniProt P08254); test: The concentration required to achieve 50% inhibition against Matrix metalloprotease-3
# Stromelysin-1, sequence (P08254 whole entry): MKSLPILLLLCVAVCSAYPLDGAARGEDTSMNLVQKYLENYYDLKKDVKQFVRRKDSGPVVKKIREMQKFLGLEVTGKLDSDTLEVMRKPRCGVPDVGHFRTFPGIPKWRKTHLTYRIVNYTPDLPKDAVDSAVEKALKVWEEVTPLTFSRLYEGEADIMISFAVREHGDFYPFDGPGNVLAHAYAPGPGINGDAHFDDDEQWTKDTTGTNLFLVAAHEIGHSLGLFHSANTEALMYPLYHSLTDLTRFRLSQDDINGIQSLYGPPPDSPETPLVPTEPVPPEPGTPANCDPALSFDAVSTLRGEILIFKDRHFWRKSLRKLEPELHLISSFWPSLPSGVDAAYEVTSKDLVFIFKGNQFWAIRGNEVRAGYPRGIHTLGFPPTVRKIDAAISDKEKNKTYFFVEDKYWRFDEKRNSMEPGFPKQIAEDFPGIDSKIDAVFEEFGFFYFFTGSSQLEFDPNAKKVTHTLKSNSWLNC
# [3] = molecular target: 72 kDa type IV collagenase (Homo sapiens, UniProt P08253); test: The concentration required to achieve 50% inhibition against Matrix metalloprotease-2
# 72 kDa type IV collagenase, sequence (P08253 whole entry): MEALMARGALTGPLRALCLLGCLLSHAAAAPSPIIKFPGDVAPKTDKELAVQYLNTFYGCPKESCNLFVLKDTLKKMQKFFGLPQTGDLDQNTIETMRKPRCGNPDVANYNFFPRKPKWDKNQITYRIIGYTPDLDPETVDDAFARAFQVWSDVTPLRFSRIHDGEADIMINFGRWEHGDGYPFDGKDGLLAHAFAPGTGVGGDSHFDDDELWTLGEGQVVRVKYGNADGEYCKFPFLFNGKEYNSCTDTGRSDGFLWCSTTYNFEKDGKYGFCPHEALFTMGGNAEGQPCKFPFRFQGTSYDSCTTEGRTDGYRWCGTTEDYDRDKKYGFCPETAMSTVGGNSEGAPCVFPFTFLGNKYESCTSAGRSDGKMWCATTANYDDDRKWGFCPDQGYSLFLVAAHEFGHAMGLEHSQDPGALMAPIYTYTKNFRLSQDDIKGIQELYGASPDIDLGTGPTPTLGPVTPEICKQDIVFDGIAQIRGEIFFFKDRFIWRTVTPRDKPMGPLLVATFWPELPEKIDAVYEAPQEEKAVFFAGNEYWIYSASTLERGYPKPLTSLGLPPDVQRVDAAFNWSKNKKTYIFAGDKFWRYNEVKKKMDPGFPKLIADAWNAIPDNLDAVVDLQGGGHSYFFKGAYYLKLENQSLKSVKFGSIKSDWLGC
# Interstitial collagenase = molecular target: T3, Interstitial collagenase (Homo sapiens, UniProt P03956); test: The concentration required to achieve 50% inhibition against Matrix metalloprotease-1
# T3 sequence (P03956 whole entry): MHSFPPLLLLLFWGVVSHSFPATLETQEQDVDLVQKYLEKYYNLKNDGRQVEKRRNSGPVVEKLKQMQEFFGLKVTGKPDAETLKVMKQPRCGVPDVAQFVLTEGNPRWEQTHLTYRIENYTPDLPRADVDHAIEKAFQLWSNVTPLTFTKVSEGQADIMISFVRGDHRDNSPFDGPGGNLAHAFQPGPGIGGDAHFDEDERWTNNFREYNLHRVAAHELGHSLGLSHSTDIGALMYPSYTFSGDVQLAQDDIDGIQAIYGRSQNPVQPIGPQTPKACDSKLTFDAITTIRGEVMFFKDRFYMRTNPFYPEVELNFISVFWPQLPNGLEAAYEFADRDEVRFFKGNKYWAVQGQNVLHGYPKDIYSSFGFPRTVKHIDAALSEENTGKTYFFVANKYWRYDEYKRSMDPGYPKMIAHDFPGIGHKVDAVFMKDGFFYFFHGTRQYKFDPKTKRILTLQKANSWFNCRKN
# [4] = molecular target: Matrix metalloproteinase-9 (Homo sapiens, UniProt P14780); test: The concentration required to achieve 50% inhibition against Matrix metalloprotease-9
# Matrix metalloproteinase-9, sequence (P14780 whole entry): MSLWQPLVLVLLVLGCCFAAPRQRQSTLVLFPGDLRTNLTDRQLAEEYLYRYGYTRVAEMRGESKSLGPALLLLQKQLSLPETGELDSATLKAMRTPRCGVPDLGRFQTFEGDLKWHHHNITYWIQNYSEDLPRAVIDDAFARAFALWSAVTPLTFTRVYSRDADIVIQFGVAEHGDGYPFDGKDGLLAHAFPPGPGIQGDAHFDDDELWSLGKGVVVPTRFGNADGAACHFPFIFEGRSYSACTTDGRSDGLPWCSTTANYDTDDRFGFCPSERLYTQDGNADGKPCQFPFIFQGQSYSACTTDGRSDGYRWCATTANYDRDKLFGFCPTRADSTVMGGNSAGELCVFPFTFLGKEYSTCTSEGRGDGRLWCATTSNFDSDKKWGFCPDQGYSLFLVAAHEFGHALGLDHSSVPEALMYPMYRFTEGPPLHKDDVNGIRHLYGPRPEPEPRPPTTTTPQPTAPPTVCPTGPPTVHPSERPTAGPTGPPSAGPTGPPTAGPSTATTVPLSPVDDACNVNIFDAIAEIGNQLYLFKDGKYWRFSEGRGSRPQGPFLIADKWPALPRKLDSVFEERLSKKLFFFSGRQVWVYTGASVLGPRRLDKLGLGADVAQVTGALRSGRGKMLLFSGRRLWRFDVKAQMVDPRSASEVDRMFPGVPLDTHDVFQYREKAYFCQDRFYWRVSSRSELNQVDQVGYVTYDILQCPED
# Prolyl endopeptidase = molecular target: T4, Prolyl endopeptidase (Homo sapiens, UniProt P48147); test: The concentration required to achieve 50% inhibition against prolyl endopeptidase
# T4 sequence (P48147 whole entry): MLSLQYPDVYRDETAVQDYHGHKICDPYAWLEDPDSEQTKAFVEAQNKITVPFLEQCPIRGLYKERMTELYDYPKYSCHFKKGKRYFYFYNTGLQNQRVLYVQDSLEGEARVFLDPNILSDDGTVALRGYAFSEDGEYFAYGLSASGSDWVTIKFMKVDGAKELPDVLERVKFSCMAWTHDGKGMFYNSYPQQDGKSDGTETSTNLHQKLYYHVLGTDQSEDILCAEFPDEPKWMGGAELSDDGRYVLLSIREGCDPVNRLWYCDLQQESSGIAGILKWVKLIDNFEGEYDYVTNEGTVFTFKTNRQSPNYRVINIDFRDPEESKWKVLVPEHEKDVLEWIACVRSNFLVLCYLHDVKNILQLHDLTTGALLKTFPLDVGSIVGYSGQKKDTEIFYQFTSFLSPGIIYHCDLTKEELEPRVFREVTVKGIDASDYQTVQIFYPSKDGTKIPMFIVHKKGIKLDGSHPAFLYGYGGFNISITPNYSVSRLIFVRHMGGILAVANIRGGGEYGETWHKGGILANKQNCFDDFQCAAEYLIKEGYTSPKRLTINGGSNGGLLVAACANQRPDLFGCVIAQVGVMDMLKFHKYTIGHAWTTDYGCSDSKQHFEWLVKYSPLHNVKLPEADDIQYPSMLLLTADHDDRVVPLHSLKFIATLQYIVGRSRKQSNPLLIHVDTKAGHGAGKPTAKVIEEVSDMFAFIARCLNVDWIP
# [5] = molecular target: T2, Neutrophil elastase (Homo sapiens); test: Percentage inhibition of HLE induced hemorrhage in the hamster lung at 18 hours; assay type: functional, tissue-based; conditions: concentration not given here
# [6] = molecular target: T2, Neutrophil elastase (Homo sapiens); test: Percentage inhibition of HLE induced hemorrhage in the hamster lung at 24 hours; assay type: functional, tissue-based; conditions: concentration not given here
# [7] = molecular target: T2, Neutrophil elastase (Homo sapiens); test: Percentage inhibition of HLE induced hemorrhage in the hamster lung at 6 hours; assay type: functional, tissue-based; conditions: concentration not given here
# Rattus norvegicus [8] = species on record: Rattus norvegicus; test: Inhibitory concentration against ferric ascorbate-induced lipid peroxidation from rat liver microsomal preparation; assay type: functional
# [9] = molecular target: T2, Neutrophil elastase (Homo sapiens); test: Percentage inhibition of HLE induced hemorrhage in the hamster lung at 48 hours; assay type: functional, tissue-based; conditions: concentration not given here
Structure (SMILES),IC50 (Neutrophil elastase),inhibition [1],IC50 (Rattus norvegicus [2]),IC50 (Rattus norvegicus [8]),also measured
CCOCOc1c(C(C)(C)C)cc(/C=C/C(=O)NS(=O)(=O)c2ccc(C(=O)NC(C(=O)N3[C@@H](C(=O)NC(C(=O)C(F)(F)F)C(C)C)C[C@H]4CCCC[C@H]43)C(C)C)cc2)cc1C(C)(C)C (stereo not given in full),0.036 µM,19%,Not Active,,
CC(C)C(NC(=O)c1ccc(S(=O)(=O)NC(=O)c2ccc(Cl)c(S(=O)(=O)NC(=O)CSc3cc(C(C)(C)C)c(O)c(C(C)(C)C)c3)c2)cc1)C(=O)N1[C@@H](C(=O)NC(C(=O)C(F)(F)F)C(C)C)C[C@H]2CCCC[C@H]21 (stereo not given in full),,,,,IC50 (Stromelysin-1): 38 µM; IC50 [3]: 19 µM; IC50 (Interstitial collagenase): 58 µM; IC50 [4]: 24 µM; IC50 (Prolyl endopeptidase): 2 µM
CC(C)C(NC(=O)[C@@H]1CC2CCCCC2N1C(=O)[C@@H](CCCCNC(=O)CCCSc1cc(C(C)(C)C)c(O)c(C(C)(C)C)c1)NC(=O)c1ccc(C(=O)NS(=O)(=O)c2ccc(Cl)cc2)cc1)C(=O)C(F)(F)F (stereo not given in full),0.084 µM,3%,,2.5 µM,
CC(C)C(NC(=O)c1ccc(S(=O)(=O)NC(=O)c2cc(C(C)(C)C)c(OC(=O)c3cc(C(C)(C)C)c(O)c(C(C)(C)C)c3)c(C(C)(C)C)c2)cc1)C(=O)N1[C@@H](C(=O)NC(C(=O)C(F)(F)F)C(C)C)C[C@H]2CCCC[C@H]21 (stereo not given in full),0.046 µM,0%,Not Active,,

# Further molecules by falling IC50 (Neutrophil elastase), results first:
IC50 (Neutrophil elastase),inhibition [1],IC50 (Rattus norvegicus [2]),IC50 (Rattus norvegicus [8]),Structure (SMILES),also measured
0.07 µM,40%,,2.5 µM,CC(C)C(NC(=O)[C@@H]1CC2CCCCC2N1C(=O)[C@@H](CCCCNC(=O)Cc1cc(C(C)(C)C)c(O)c(C(C)(C)C)c1)NC(=O)c1ccc(C(=O)NS(=O)(=O)c2ccc(Cl)cc2)cc1)C(=O)C(F)(F)F (stereo not given in full),inhibition [5]: 45%; inhibition [6]: 14%; inhibition [9]: 0%; inhibition [7]: 41%
0.038 µM,66%,,5 µM,CC(C)C(NC(=O)c1ccc(S(=O)(=O)NC(=O)Cc2cc(C(C)(C)C)c(O)c(C(C)(C)C)c2)cc1)C(=O)N1[C@@H](C(=O)NC(C(=O)C(F)(F)F)C(C)C)C[C@H]2CCCC[C@H]21 (stereo not given in full),inhibition [5]: 26%; inhibition [6]: 3%; inhibition [7]: 65%
0.032 µM,,,,CC(C)[C@H](NC(=O)OC(C)(C)C)C(=O)N1C2CCC(CC2)[C@@H]1C(=O)N[C@H](C(=O)C(F)(F)F)C(C)C,
0.015 µM,,Not Active,,CC(C)C(NC(=O)c1ccc(C(=O)NS(=O)(=O)c2ccc(Cl)cc2)cc1)C(=O)N1C2CCC(CC2)[C@@H]1C(=O)NC(C(=O)C(F)(F)F)C(C)C (stereo not given in full),
